PubChem BioAssay (NCI)
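Method: 48-hour compound exposure of cells in 96-well plates, five concentrations, linear interpolation of endpoints. GI50 marks 50% less growth. TGI marks complete inhibition of growth.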

How the values were obtained:
Assay in all cases: growth of human tumour cells (NCI), 48 h
HL-60(TB) leukemia = system: HL-60(TB) leukemia
HOP-62 NSCLC = system: HOP-62 NSCLC
DU-145 prostate = system: DU-145 prostate
OVCAR-5 ovarian = system: OVCAR-5 ovarian
SK-MEL-2 melanoma = system: SK-MEL-2 melanoma
HS 578T breast = system: HS 578T breast
U251 CNS = system: U251 CNS
MCF7 breast = system: MCF7 breast
UACC-257 melanoma = system: UACC-257 melanoma
TK-10 renal = system: TK-10 renal

N#Cc1c(Cl)c2cc([N+](=O)[O-])ccc2n2c1nc1ccccc12 gave a TGI (HL-60(TB) leukemia) of 0.58 µM, a TGI (HOP-62 NSCLC) of 47.4 µM and a TGI (DU-145 prostate) of 18.4 µM. It also gave a TGI (OVCAR-5 ovarian) of 16.5 µM, a TGI (SK-MEL-2 melanoma) of 36.4 µM and a TGI (HS 578T breast) of 18 µM. The TGI (U251 CNS) was greater than 100 µM, the TGI (MCF7 breast) was 4.56 µM and the TGI (UACC-257 melanoma) was 56 µM. For the same compound, the TGI (TK-10 renal) was 8.95 µM.

C=C(C)C(=O)OC1CCC2(C)C(CCC3C2CCC2(C)C(c4ccc(=O)oc4)CC4OC432)C1 (configuration not stated) showed a TGI (HL-60(TB) leukemia) of 9.64 µM, a TGI (HOP-62 NSCLC) of 10.5 µM and a TGI (OVCAR-5 ovarian) of 106 µM. The TGI (SK-MEL-2 melanoma) was 10.2 µM, the TGI (U251 CNS) was 30.3 µM and the TGI (MCF7 breast) was 13.2 µM. It also gave a TGI (UACC-257 melanoma) of 17.2 µM.

For COc1cc(/C=C2\CCCC3=C2NC(C)=NC3c2cc(OC)c(OC)c(OC)c2)cc(OC)c1OC (configuration not stated), the GI50 (DU-145 prostate) was 1.53 µM, the TGI (DU-145 prostate) was greater than 100 µM and the GI50 (OVCAR-5 ovarian) was 3.54 µM. It also gave a TGI (OVCAR-5 ovarian) greater than 100 µM, a GI50 (HS 578T breast) of 5.16 µM and a TGI (HS 578T breast) greater than 100 µM. For the same compound, the GI50 (MCF7 breast) was 1.45 µM, the TGI (MCF7 breast) was greater than 100 µM and the GI50 (TK-10 renal) was 4.33 µM. It also gave a TGI (TK-10 renal) greater than 100 µM.

Work on O=S1(=O)N(CCNc2nccc(-c3c(-c4cccc(O)c4)nc4sccn34)n2)CCN1Cc1ccccc1 yielded a GI50 (HL-60(TB) leukemia) of 8.4 µM, a TGI (HL-60(TB) leukemia) of 20.1 µM and a GI50 (HOP-62 NSCLC) of 24.6 µM. It also gave a TGI (HOP-62 NSCLC) greater than 50 µM, a GI50 (DU-145 prostate) of 8.1 µM and a TGI (DU-145 prostate) of 26.1 µM. The GI50 (OVCAR-5 ovarian) was 29.8 µM, the TGI (OVCAR-5 ovarian) was greater than 50 µM and the GI50 (SK-MEL-2 melanoma) was 1.55 µM. The TGI (SK-MEL-2 melanoma) was 4.59 µM, the GI50 (HS 578T breast) was 2.78 µM and the TGI (HS 578T breast) was 16.6 µM. It also gave a GI50 (U251 CNS) of 8.21 µM, a TGI (U251 CNS) greater than 50 µM and a GI50 (MCF7 breast) of 4.22 µM. For the same compound, the TGI (MCF7 breast) was 34.6 µM, the GI50 (UACC-257 melanoma) was 0.996 µM and the TGI (UACC-257 melanoma) was 43.1 µM. For the same compound, the GI50 (TK-10 renal) was 4.07 µM and the TGI (TK-10 renal) was 29.2 µM.

Cc1nc2ccccc2n1C(=O)c1c(F)c(F)c(F)c(F)c1F showed a TGI (HL-60(TB) leukemia) greater than 100 µM, a TGI (HOP-62 NSCLC) of 68.3 µM and a TGI (DU-145 prostate) of 76.5 µM. For the same compound, the TGI (OVCAR-5 ovarian) was 40.8 µM, the TGI (SK-MEL-2 melanoma) was 46.6 µM and the TGI (HS 578T breast) was greater than 100 µM. It also gave a TGI (U251 CNS) of 52.6 µM, a TGI (MCF7 breast) greater than 100 µM and a TGI (UACC-257 melanoma) of 39.1 µM. The TGI (TK-10 renal) was 66.3 µM.

Cc1cc(O)c(C(C)(C)C)cc1Sc1cc(C(C)(C)C)c(O)cc1C gave a GI50 (HL-60(TB) leukemia) of 2.6 µM, a TGI (HL-60(TB) leukemia) of 6.35 µM and a GI50 (HOP-62 NSCLC) of 2.11 µM. The TGI (HOP-62 NSCLC) was 4.74 µM, the GI50 (DU-145 prostate) was 3.69 µM and the TGI (DU-145 prostate) was 13.2 µM. It also gave a GI50 (OVCAR-5 ovarian) of 1.93 µM, a TGI (OVCAR-5 ovarian) of 4 µM and a GI50 (SK-MEL-2 melanoma) of 2.46 µM. For the same compound, the TGI (SK-MEL-2 melanoma) was 4.51 µM, the GI50 (HS 578T breast) was 3.02 µM and the TGI (HS 578T breast) was 13.9 µM. For the same compound, the GI50 (U251 CNS) was 1.99 µM, the TGI (U251 CNS) was 4.22 µM and the GI50 (MCF7 breast) was 2.61 µM. It also gave a TGI (MCF7 breast) of 9 µM, a GI50 (UACC-257 melanoma) of 2.28 µM and a TGI (UACC-257 melanoma) of 6.89 µM. It also gave a GI50 (TK-10 renal) of 2.54 µM and a TGI (TK-10 renal) of 6.22 µM.

Work on Clc1ccccc1/C=C/c1cscn1 yielded a TGI (HL-60(TB) leukemia) greater than 100 µM, a TGI (HOP-62 NSCLC) greater than 100 µM and a TGI (OVCAR-5 ovarian) greater than 100 µM. The TGI (SK-MEL-2 melanoma) was greater than 100 µM, the TGI (U251 CNS) was greater than 100 µM and the TGI (UACC-257 melanoma) was greater than 100 µM. It also gave a TGI (TK-10 renal) greater than 100 µM.

C=CC1(C)CCC2=C(CCC3C(C)(C(=O)OC)CCCC23C)C1=O (configuration not stated) showed a TGI (HL-60(TB) leukemia) of 55.2 µM, a TGI (HOP-62 NSCLC) of 31.3 µM and a TGI (OVCAR-5 ovarian) of 29.5 µM. The TGI (SK-MEL-2 melanoma) was 33.9 µM, the TGI (U251 CNS) was 29 µM and the TGI (UACC-257 melanoma) was 55.9 µM. For the same compound, the TGI (TK-10 renal) was 56.4 µM.

O=C(N/N=C\c1cccc(O)c1)c1ccncc1 was tested, and the TGI (HOP-62 NSCLC) was greater than 100 µM, the TGI (DU-145 prostate) was greater than 100 µM and the TGI (OVCAR-5 ovarian) was greater than 100 µM. For the same compound, the TGI (SK-MEL-2 melanoma) was greater than 100 µM, the TGI (HS 578T breast) was greater than 100 µM and the TGI (U251 CNS) was greater than 100 µM. It also gave a TGI (UACC-257 melanoma) greater than 100 µM and a TGI (TK-10 renal) greater than 100 µM.

Compound CCOC(=O)C(O)(NC(=O)c1ccc(F)cc1)C(F)(F)F (configuration not stated) has a TGI (HL-60(TB) leukemia) greater than 100 µM, a TGI (HOP-62 NSCLC) greater than 100 µM and a TGI (DU-145 prostate) greater than 100 µM. The TGI (OVCAR-5 ovarian) was greater than 100 µM, the TGI (SK-MEL-2 melanoma) was greater than 100 µM and the TGI (HS 578T breast) was greater than 100 µM. The TGI (U251 CNS) was greater than 100 µM, the TGI (MCF7 breast) was greater than 100 µM and the TGI (UACC-257 melanoma) was greater than 100 µM. It also gave a TGI (TK-10 renal) greater than 100 µM.

Work on O=C1NN(C2=NNC3(C(=O)N2)c2ccccc2-c2ccccc23)C(c2ccccc2)=N/C1=C/c1ccc(O)cc1 yielded a GI50 (HL-60(TB) leukemia) of 51.7 µg/mL, a TGI (HL-60(TB) leukemia) greater than 150 µg/mL and a GI50 (HOP-62 NSCLC) of 39.9 µg/mL. For the same compound, the TGI (HOP-62 NSCLC) was 138 µg/mL, the GI50 (DU-145 prostate) was 90.8 µg/mL and the TGI (DU-145 prostate) was greater than 150 µg/mL. The GI50 (OVCAR-5 ovarian) was greater than 150 µg/mL, the TGI (OVCAR-5 ovarian) was greater than 150 µg/mL and the GI50 (HS 578T breast) was 50.4 µg/mL. It also gave a TGI (HS 578T breast) greater than 150 µg/mL, a GI50 (U251 CNS) of 104 µg/mL and a TGI (U251 CNS) greater than 150 µg/mL. For the same compound, the GI50 (MCF7 breast) was 39.4 µg/mL, the TGI (MCF7 breast) was greater than 150 µg/mL and the GI50 (UACC-257 melanoma) was 113 µg/mL. For the same compound, the TGI (UACC-257 melanoma) was greater than 150 µg/mL, the GI50 (TK-10 renal) was 39.1 µg/mL and the TGI (TK-10 renal) was 71.9 µg/mL.
